{"source": "paper PMC10703858", "about": "“A simple and green capillary electrophoresis-mass spectrometry method for therapeutic drug monitoring of colistin in clinical plasma samples” (Heliyon, 2023)", "key": {"[1]": {"settings": "pediatric patients; sum of CST A and CST B; cited from earlier work"}, "[2]": {"test": "freeze and thaw stability in plasma QC samples", "settings": "n = 5", "experimental": "(§1) Quality control (QC) samples were prepared at three concentration levels: i.) low QC: 0.28 μg mL^−1 (CST A sulfate) and 0.47 μg mL^−1 (CST B sulfate); ii.) medium QC: 2.79 μg mL^−1 (CST A sulfate) and 4.71 μg mL^−1 (CST B sulfate); and iii.) high QC: 6.51 μg mL^−1 (CST A sulfate) and 10.99 μg mL^−1 (CST B sulfate). The calibration curve and the QC sample solutions were prepared by mixing 30 μL of the CST sulfate standard at the desired concentration level with 30 μL of demineralized water or plasma and 120 μL of the IS working solution. After being vortexed and left to rest at room temperature for 10 min, the samples were centrifuged at 30,000×g for 10 min. Following this action, supernatant was immediately injected from a CE vial. Every sample underwent three measurements.\n(§2) During the validation process, two types of stability were assessed: freeze and thaw stability (three cycles of freezing and thawing at room temperature) and short-term stability (sample kept in an autosampler for 24 h at laboratory temperature). In order to compare the findings from the measurements of QC samples stored according to the guidelines with those of newly prepared QC samples, stability experiments were conducted."}, "[3]": {"test": "plasma CST concentration in critically ill patient (CE-MS/MS, TDM)", "assay_type": "in vivo, human", "settings": "CST A + CST B = 100 %, reference standard was 37.2/62.8 %", "procedure": "Clinical plasma samples from two critically ill patients were obtained from the Clinic of Hematology and Transfusiology of St Cyril and Methodius Hospital in Bratislava. After collection, the samples were stored at −80 °C. Before the analysis, the samples were thawed at laboratory temperature, vortexed, and then, 30 μL of the plasma sample was mixed with 30 μL of demineralized water and 120 μL of the IS working solution. […] Following this action, the supernatant was injected directly into the CE system from a CE vial.\nThe application potential of the validated CE-MS method was tested on the plasma samples obtained from the Clinic of Hematology and Transfusiology of St Cyril and Methodius Hospital in Bratislava. Samples were collected from two critically ill patients treated with multiple intravenous antibiotics and antifungals. The samples were collected before and 30 min after the intravenous (i.v.) administration of the drugs. Patient 1 was treated with meropenem, trimethoprim/sulphamethoxazol, and CST. […] The measured plasma CST concentration of patient 1 before drug administration was 0.82 ± 0.02 μg mL^−1 ([…], n = 3). […]\nAs previously stated, CST is a heterogeneous substance and, as such, differs not only between producers but also across batches produced by the same manufacturer. […] In clinical plasma samples, a reverse percentage representation of the CST forms was detected. […]"}, "[4]": {"test": "short-term (autosampler) stability in plasma QC samples", "settings": "n = 5", "experimental": "as §1, §2"}, "[5]": {"tested_on": "plasma proteins (especially acidic alpha glycoprotein)", "settings": "cited from earlier work"}, "[6]": {"set-up": "method as in PMID 30500757", "settings": "used topically and orally; cited from earlier work"}}, "note": "Like-named read-outs stand apart in the source and are kept apart here. Positions of bridges follow the written chain, without caps; N, C: chain ends. Non-standard residues stand in square brackets, D forms with d. Residues, ends and D or L forms follow the SMILES beside them. *: point of attachment. Octanoyl(6-Me) = CCC(C)CCCCC(=O)*; Dab = NCC[CH](N)C(=O)O", "data": [{"compound": "Colistin [CST]", "values": [{"measurement": "mean steady-state concentration of CST in plasma, median", "setting": "[1]", "value": 2.92, "unit": "µg/mL"}]}, {"compound": "CCC(C)CCCCC(=O)NC(CCN)C(=O)NC(C(=O)NC(CCN)C(=O)NC1CCNC(=O)C(C(C)O)NC(=O)C(CCN)NC(=O)C(CCN)NC(=O)C(CC(C)C)NC(=O)C(CC(C)C)NC(=O)C(CCN)NC1=O)C(C)O", "note": "(stereo not drawn) [CST A, colistin A] ({Octanoyl(6-Me)}-[Dab]T[Dab][Dab][Dab]LL[Dab][Dab]T; lactam 4-C; configuration not given here)", "values": [{"measurement": "Freeze-to-thaw stability, Found, QC high", "setting": "[2]; plasma QC high, nominal 6.51 (CST A) / 10.99 (CST B) μg.mL^−1, three freeze-thaw cycles, CE-MS/MS", "value": 6.54, "unit": "µg/mL"}, {"measurement": "Freeze-to-thaw stability, Found, QC low", "setting": "[2]; plasma QC low, nominal 0.28 (CST A) / 0.47 (CST B) μg.mL^−1, three cycles of freezing and thawing at room temperature, CE-MS/MS", "value": 0.29, "unit": "µg/mL"}, {"measurement": "Freeze-to-thaw stability, Found, QC medium", "setting": "[2]; plasma QC medium, nominal 2.79 (CST A) / 4.71 (CST B) μg.mL^−1, three freeze-thaw cycles, CE-MS/MS", "value": 2.81, "unit": "µg/mL"}, {"measurement": "Freeze-to-thaw stability, RE, QC low", "setting": "[2]; relative error in comparison to fresh sample, plasma QC low, three freeze-thaw cycles", "value": 2.7, "unit": "%"}, {"measurement": "Freeze-to-thaw stability, RE, QC medium", "setting": "[2]; relative error in comparison to fresh sample, plasma QC medium, three freeze-thaw cycles", "value": 1.7, "unit": "%"}, {"measurement": "percentage representation of the CST forms in clinical plasma samples", "setting": "[3]", "value": 76.4, "unit": "%"}, {"measurement": "Autosampler stability, Found, QC high", "setting": "[4]; plasma QC high, nominal 6.51 (CST A) / 10.99 (CST B) μg.mL^−1, autosampler 24 h at laboratory temperature, CE-MS/MS", "value": 6.76, "unit": "µg/mL"}, {"measurement": "Autosampler stability, Found, QC low", "setting": "[4]; plasma QC low, nominal 0.28 (CST A) / 0.47 (CST B) μg.mL^−1, kept in autosampler 24 h at laboratory temperature, pooled human plasma, CE-MS/MS", "value": 0.29, "unit": "µg/mL"}, {"measurement": "Autosampler stability, Found, QC medium", "setting": "[4]; plasma QC medium, nominal 2.79 (CST A) / 4.71 (CST B) μg.mL^−1, autosampler 24 h at laboratory temperature, CE-MS/MS", "value": 2.94, "unit": "µg/mL"}, {"measurement": "Autosampler stability, RE, QC high", "setting": "[4]; relative error in comparison to fresh sample, plasma QC high, autosampler 24 h at laboratory temperature", "value": 2.3, "unit": "%"}, {"measurement": "Autosampler stability, RE, QC medium", "setting": "[4]; relative error in comparison to fresh sample, plasma QC medium, autosampler 24 h at laboratory temperature", "value": 3.3, "unit": "%"}, {"measurement": "binding to plasma proteins", "setting": "[5]; especially to acidic alpha glycoprotein", "value": 56.6, "unit": "%"}]}, {"compound": "CC(C)CCCCC(=O)N[C@@H](CCN)C(=O)N[C@H](C(=O)N[C@@H](CCN)C(=O)N[C@H]1CCNC(=O)[C@H]([C@@H](C)O)NC(=O)[C@H](CCN)NC(=O)[C@H](CCN)NC(=O)[C@H](CC(C)C)NC(=O)[C@@H](CC(C)C)NC(=O)[C@H](CCN)NC1=O)[C@@H](C)O", "note": "[CST B, colistin B] (HELM PEPTIDE1{[CC(C)CCCCC(=O)[*:2]].[Dab].T.[Dab].[Dab].[Dab].[dL].L.[Dab].[Dab].T}$PEPTIDE1,PEPTIDE1,5:R3-11:R2$$$V2.0)", "values": [{"measurement": "binding to plasma proteins", "setting": "[5]", "value": 41.7, "unit": "%"}]}, {"compound": "colistin sulfate", "values": [{"measurement": "absorption from the gastrointestinal tract", "setting": "[6]", "value": "minimal"}]}]}
